Legend:
Vibrio = experiment: Antimicrobial activity against Vibrio at 50 ug/disk after 48 hrs; assay type: functional; details: read-out: IZ
Alteromonas = experiment: Antimicrobial activity against Alteromonas at 50 ug/disk after 48 hrs; assay type: functional; details: read-out: IZ
Corynebacterium [1] = experiment: Antimicrobial activity against Corynebacterium at 50 ug/disk after 48 hrs; assay type: functional; details: read-out: IZ
Bacillus [2] = experiment: Antimicrobial activity against Bacillus at 50 ug/disk after 48 hrs; assay type: functional; details: read-out: IZ
Flavobacterium [3] = experiment: Antimicrobial activity against Flavobacterium at 50 ug/disk after 48 hrs; assay type: functional; details: read-out: IZ
Corynebacterium [4] = experiment: Antimicrobial activity against Corynebacterium at 10 ug/disk after 48 hrs; assay type: functional; details: read-out: IZ
Bacillus [5] = experiment: Antimicrobial activity against Bacillus at 10 ug/disk after 48 hrs; assay type: functional; details: read-out: IZ
Flavobacterium [6] = experiment: Antimicrobial activity against Flavobacterium at 10 ug/disk after 48 hrs; assay type: functional; details: read-out: IZ
Carassius auratus = experiment: Toxicity against goldfish at 500 ug; assay type: organism-based; details: in vivo

In the case of Brc1c[nH]c(Br)c1Br, the zone of inhibition at 50 µg/disc (Vibrio) is reported as > 5 mm, the zone of inhibition at 50 µg/disc (Alteromonas) is reported as > 5 mm and the zone of inhibition at 50 µg/disc (Corynebacterium [1]) is reported as > 5 mm. For the same compound, the zone of inhibition at 50 µg/disc (Bacillus [2]) was > 5 mm, the zone of inhibition at 50 µg/disc (Flavobacterium [3]) was > 5 mm and the zone of inhibition at 10 µg/disc (Corynebacterium [4]) was 2 mm. For the same compound, the zone of inhibition at 10 µg/disc (Bacillus [5]) was 2 mm, the zone of inhibition at 10 µg/disc (Flavobacterium [6]) was 2 mm and the Activity (Carassius auratus) was “Non-toxic”.

Reference: ChEMBL document CHEMBL1158907, “2,3,4-Tribromopyrrole from the Marine Polychaete Polyphysia crassa” (J Nat Prod, 1990)
